The values below come from paper PMC12040169 (PLOS Biology, 2025).

As a reminder, the viability is a read-out of living cells in per cent, often relative to untreated cells.

This series in a line: in vitro. Particulars: human, hela cells, % viability.

As to `CC(C)(C)c1cc(-n2c(-c3cccnc3)nc3ccccc32)cc(C(C)(C)C)c1O` [CBK262907], the viability at 28.5 h, 10 µM came out at 103%. Take `COc1cc2c(cc1S(N)(=O)=O)C(=O)CCC2` [CBK010234]: the viability at 28.5 h, 10 µM was determined as 92.2%. Regarding `CCOCC1CN(c2cc(CO)c(F)cn2)CCO1` (centres unmarked) [CBK304756], the viability at 28.5 h, 10 µM was found to be 92%. The result for `Cc1nccn1C(C(=O)NCC1(C)COC1)c1ccccc1` (centres unmarked) [CBK281743] reads 97.9%; that for `CSCCOc1cncc(N2CCCC2)n1` [CBK115761], 101%; that for `COc1ccc(CN2/C(=N/c3ccccc3)S[C@H]3[C@@H]2[C@@H](O)[C@H](O)C[C@@H]3C(N)=O)cc1` [CBK288941], 102%. As for `O=C(Nc1ccccc1C(=O)O)c1ccccc1O` [CBK012116], the viability at 28.5 h, 10 µM came out at 89%. Take `O=C(c1cc(-c2cccnc2)[nH]n1)N1CCC(c2ccccc2)C1` (centres unmarked) [CBK281849]: the viability at 28.5 h, 10 µM is 101%. The value for `Cc1cn2c3c(=O)n(C)c(=O)n(C)c3nc2n1CCN1CCOCC1` [CBK270139] was 91.7%; that for `O=C(Oc1ccc(/C=N/c2ccc(-c3nc4ccccc4s3)c(O)c2)cc1)c1ccc(Cl)cc1` [CBK261234] was 100%; that for `COc1ccc(-c2cc(Nc3ccccc3)ncn2)cc1` [CBK090911] was 93.9%. In the case of `Cc1ccc(C(=O)N[C@@H]2C[C@H](C)CC[C@H]2C(C)C)cc1C` [CBK085823], the viability at 28.5 h, 10 µM amounted to 87.1%. With `CCCN1C(=O)N(CO)C2C1N(CO)C(=O)N2CCC` (centres unmarked) [CBK263882], the viability at 28.5 h, 10 µM is 101%. For the molecule `COc1ccc(C(=O)NC(c2ccc(OC)c(OC)c2)c2cc(Cl)c3cccnc3c2O)cc1` (centres unmarked) [CBK263992], the viability at 28.5 h, 10 µM is 96.3%. With `O=C(O)C(Nc1nc(C(F)(F)F)nc2ccccc12)c1ccccc1` (centres unmarked) [CBK269570], the viability at 28.5 h, 10 µM is 106%. `Cc1ccccc1NC(=O)Cc1nnc(SCC(=O)c2ccccc2)n1C` [CBK269719]: the viability at 28.5 h, 10 µM came out at 101%. The value for `Cc1cc(C(=O)NCc2ccc(C(=O)O)cc2)no1` [CBK268108] was 98.3%; that for `O=C(O)C(Cc1ccc(O)cc1)c1ccccc1` (centres unmarked) [CBK012287] was 84.7%.

For `COc1cc(/C=C2/SC(=S)N(CC(=O)O)C2=O)cc(Br)c1OCc1ccccn1` [CBK265598], the viability at 28.5 h, 10 µM was determined as 115%. For the molecule `OC1(c2ccc(F)cc2)CCC2CN(CC3CC3)CC21` (centres unmarked) [CBK283105], the viability at 28.5 h, 10 µM amounted to 88.9%. With `Cn1cc(CC2CCN(Cc3ccncc3)C2)cn1` (centres unmarked) [CBK304796], the viability at 28.5 h, 10 µM stood at 107%. For `Cc1nn(-c2ccccc2)c(C)c1C1CC(=O)Nc2c1cnn2C(C)C` (centres unmarked) [CBK287925], the viability at 28.5 h, 10 µM worked out at 104%. Consider `COC(=O)c1c(NC(=S)NCc2cccs2)sc(C)c1-c1ccccc1` [CBK266943], for which the viability at 28.5 h, 10 µM was 97%. For `O=C(Cc1c[nH]c2ccccc12)Nc1cccnc1N1CCNCC1` [CBK028265T], the viability at 28.5 h, 10 µM came out at 105%.

Turning to `CCN(CC(=O)NCc1cccnc1)S(=O)(=O)c1ccc(F)cc1` [CBK269503], the viability at 28.5 h, 10 µM worked out at 85.3%. As for `CCCCN(C)S(=O)(=O)NCCc1cn2ccccc2n1` [CBK304543], the viability at 28.5 h, 10 µM came to 101%.

Regarding `O=C(O)CCN1C(=O)/C(=C/c2ccc(C(=O)O)cc2)SC1=S` [CBK262785], the viability at 28.5 h, 10 µM amounted to 93.2%. As to `CN1CCCN(c2nccnc2-c2cccc(O)c2)CC1` [CBK088820], the viability at 28.5 h, 10 µM is 112%. `O=C1NC2(CCN(C(=O)c3ccco3)CC2)Nc2ccccc21` [CBK284762]: the viability at 28.5 h, 10 µM amounted to 104%. With `CCCCc1ccc(S(=O)(=O)Nc2nccnc2-c2cccs2)cc1` [CBK050770], the viability at 28.5 h, 10 µM turned out to be 90.4%.

Take `CC(C)CN1CCCN(S(=O)(=O)c2ccc(-n3cnc(Cl)c3Cl)cc2)CC1` [CBK063017]: the viability at 28.5 h, 10 µM was 88.5%.

With `C[C@]12CN(CC3CC=CCC3)C[C@H]1C(=O)Nc1ccccc1C(=O)N2` (some centres unmarked) [CBK284738], the viability at 28.5 h, 10 µM was found to be 96.6%. The result for `Cc1nc(NS(=O)(=O)c2ccc3ccccc3c2)sc1C(=O)O` [CBK045548] reads 105%; that for `O=C(NCC(CN1CCOCC1)([N+](=O)[O-])[N+](=O)[O-])c1ccccc1` [CBK261339], 100%.

`OCc1cccc2c3c(n(Cc4ccccc4)c12)CCCC3` [CBK004693]: the viability at 28.5 h, 10 µM stood at 91.3%.

In the case of `FC(F)(F)c1cccnc1OCCOc1ccc(Cl)cc1` [CBK116621], the viability at 28.5 h, 10 µM came out at 90.5%.

Take `CC(=O)Nc1ccc(-c2ccc(C(=O)NCCc3ccc(O)cc3)cn2)cc1` [CBK158840]: the viability at 28.5 h, 10 µM stood at 105%.

`CCN(C(=O)c1cc2ccc(N(C)C)cc2[nH]1)C1CCN(C)CC1` [CBK281867]: the viability at 28.5 h, 10 µM stood at 79.8%. For the molecule `Cc1ccc(N(CC(=O)Nc2cccc3cccnc23)S(=O)(=O)c2ccc(C)cc2)cc1` [CBK262201], the viability at 28.5 h, 10 µM came out at 104%. Consider `Cc1nc(C)c(S(=O)(=O)Nc2ccccc2-c2nnnn2C(C)C)s1` [CBK305508], for which the viability at 28.5 h, 10 µM was determined as 96.3%. On to `O=C(NC1CCCc2c1cnn2Cc1ccccc1)c1ccncc1` (centres unmarked) [CBK282250], for which the viability at 28.5 h, 10 µM stood at 93.8%. In the case of `CN(C)C(=O)c1cccc(-c2cnc(N3CCOCC3)c3nccn23)c1` [CBK091261], the viability at 28.5 h, 10 µM worked out at 101%.

For `COc1cc(C(=O)O)ccc1Oc1cnn(-c2ccccc2)c(=O)c1Cl` [CBK287032], the viability at 28.5 h, 10 µM stood at 94.9%.

`O=C(NCC1CCCO1)c1ccc(NC(=O)C2C3C=CC(C3)C2C(=O)O)cc1` (centres unmarked) [CBK266317]: the viability at 28.5 h, 10 µM was determined as 94.9%. Take `O=C(O)C1C2C=CC(O2)C1C(=O)Nc1ccc(S(=O)(=O)N2CCc3ccccc32)cc1` (centres unmarked) [CBK268176]: the viability at 28.5 h, 10 µM is 91.1%. The result for `CCCC(=O)NC(c1ccccn1)C1CCC(CNC(C)=O)CC1` (centres unmarked) [CBK283080] reads 102%; that for `COc1ccc(CN2C(=S)N(c3ccc(OC)cc3)[C@H]3[C@@H]2[C@H]2OC(=O)[C@@H]3C[C@H]2O)cc1` [CBK288934], 85.4%. The result for `CC1=CC[C@H]2COC(CN3CCOC3C(C)C)[C@@H]1C2` (some centres unmarked) [CBK019189] reads 122%; that for `CC(=O)Nc1ccc(/C=N/NC(=O)c2nnn(-c3nonc3N)c2-c2ccccc2)cc1` [CBK262790], 94.9%. Turning to `O=C(O)c1nccnc1-c1ccc(COc2ccccc2)cc1` [CBK050806], the viability at 28.5 h, 10 µM was 90.2%. With `O=C(CCCN1C(=O)c2cccc3cccc(c23)C1=O)NO` [CBK261092], the viability at 28.5 h, 10 µM amounted to 92%. The value for `Cc1nn(C)c(Cl)c1S(=O)(=O)NCCc1c[nH]c2ccccc12` [CBK067310] was 85.2%. For `CCCC(=O)N[C@@H](C)Cn1c(C(F)(F)F)cc2cccnc21` [CBK283232], the viability at 28.5 h, 10 µM was determined as 92.7%. `N#CCCN(C(=O)NCc1cccc(C(F)(F)F)c1)C1CCCCC1` [CBK156350]: the viability at 28.5 h, 10 µM turned out to be 96.8%. In the case of `CCCCNC(=O)c1ccc2nc(CC)c(N(C)C(=O)C3CCCCC3)n2c1` [CBK145791], the viability at 28.5 h, 10 µM was 88.9%.

Take `Cc1cc(NS(=O)(=O)c2ccc(NC(=O)Nc3ccc4c(c3)OCO4)cc2)no1` [CBK268139]: the viability at 28.5 h, 10 µM came out at 104%.

With `COc1ccc(NC(=O)CSc2nc3c(N)ncnc3[nH]2)cc1` [CBK218441], the viability at 28.5 h, 10 µM was found to be 91.4%. In the case of `CC1(C)CC(NC2=CC(=O)CC2)CC(C)(C)N1` [CBK028997], the viability at 28.5 h, 10 µM came out at 115%. As for `C[C@H](NC(=O)C1CCN(C(=O)OC(C)(C)C)CC1)C(=O)O` [CBK286730], the viability at 28.5 h, 10 µM amounted to 78.9%. `O=C(c1ccc2c(c1)N(Cc1ccccc1Cl)C(=O)CO2)c1cccs1` [CBK286411]: the viability at 28.5 h, 10 µM was 94.2%.

Take `Cc1cc(NS(=O)(=O)N2CCOCC2)no1` [CBK269894]: the viability at 28.5 h, 10 µM was 89.9%. As to `CC(C)(C)c1nc(COc2ccc3nonc3c2)no1` [CBK005831], the viability at 28.5 h, 10 µM came to 91.8%.

Turning to `CC1(C)C(=O)N2CCN=C2c2ccccc21` [CBK009903], the viability at 28.5 h, 10 µM was 78.6%. On to `O=C(NNS(=O)(=O)c1ccc([N+](=O)[O-])cc1)Nc1cccc(C(F)(F)F)c1` [CBK266871], for which the viability at 28.5 h, 10 µM was 105%. Turning to `Cc1cccc(OCC(=O)N2CCN(S(=O)(=O)c3ccc([N+](=O)[O-])cc3)CC2)c1` [CBK264221], the viability at 28.5 h, 10 µM is 89.9%. As to `Cc1nc2ccccn2c1-c1csc(Nc2cccc(C(=O)O)c2)n1` [CBK263303B], the viability at 28.5 h, 10 µM is 92.7%. The value for `Cc1nc(S(=O)(=O)CCn2cccn2)n(C2CCCCC2)c1C` [CBK305217] was 102%; that for `COc1cc(CNn2cnnc2S)ccc1OCC(N)=O` [CBK265877] was 90%; that for `COCCc1noc(C(C)NC(=O)Cc2cccc(O)c2)n1` (centres unmarked) [CBK307493] was 99.5%. Regarding `O=C(C1CCC1)N1CCC(c2onc3c2CCCCC3)CC1` [CBK284496], the viability at 28.5 h, 10 µM was 104%. Consider `CC(=O)c1ccc(OCCn2c(SCC(=O)O)nc3ccccc32)cc1` [CBK287115], for which the viability at 28.5 h, 10 µM stood at 88.8%. Take `O=C(O)CCNC(=O)c1ccc(NS(=O)(=O)c2ccc(C3CCCCC3)cc2)cc1` [CBK296991]: the viability at 28.5 h, 10 µM is 96.1%. The value for `O=S(=O)(Nc1ccc(C(O)(C(F)(F)F)C(F)(F)F)cc1)c1ccc(-c2ccon2)s1` [CBK062105] was 91.2%; that for `COC(=O)c1sc(-c2ccsc2)cc1N` [CBK006256] was 91.8%.

Take `O=C1Nc2ccc(-c3ccccc3F)cc2C(=O)N2CCN(C(=O)c3cccnc3)C[C@H]12` [CBK289591]: the viability at 28.5 h, 10 µM is 111%.

On to `O=C(c1cccs1)N1C[C@H](c2ccc(F)cc2)[C@H]2CN(Cc3ccccc3)CC[C@H]21` [CBK285544], for which the viability at 28.5 h, 10 µM turned out to be 91.8%. The result for `CCCc1c(C(=O)N2CCN(c3cnccn3)CC2)cnn1C` [CBK305962] reads 99%.

Turning to `CC(C)c1ccccc1NC(=O)NC(=O)C1CCN(CCc2ccc(C#N)cc2)CC1` [CBK035010], the viability at 28.5 h, 10 µM was 90.3%.

Turning to `Cc1cc(-c2csc(CC(C)n3cc(Cl)cn3)n2)on1` (centres unmarked) [CBK304700], the viability at 28.5 h, 10 µM came out at 91.3%.

As to `CCOc1ccc2ccccc2c1CNCc1cccnc1` [CBK269934C], the viability at 28.5 h, 10 µM turned out to be 91.8%.
